Test results from patent EP0080822A1, “Anti-hypertensive prolinol-based peptides” (BEECHAM GROUP PLC, priority 1981, dated 1983).

Tests used:
[1] = molecular target: T1, rat lung angiotensin converting enzyme preparation (Rattus norvegicus, UniProt P47820); assay: In vitro test for inhibition of angiotensin converting enzyme; assay type: biochemical; conditions: mean of 3 experiments; read-out: 50% inhibitior. (IC50) of rat lung angiotensin converting enzyme preparation
T1 construct: rat lung angiotensin converting enzyme preparation; from tissue; host or cells: rat lung
T1 sequence (P47820 36-1313): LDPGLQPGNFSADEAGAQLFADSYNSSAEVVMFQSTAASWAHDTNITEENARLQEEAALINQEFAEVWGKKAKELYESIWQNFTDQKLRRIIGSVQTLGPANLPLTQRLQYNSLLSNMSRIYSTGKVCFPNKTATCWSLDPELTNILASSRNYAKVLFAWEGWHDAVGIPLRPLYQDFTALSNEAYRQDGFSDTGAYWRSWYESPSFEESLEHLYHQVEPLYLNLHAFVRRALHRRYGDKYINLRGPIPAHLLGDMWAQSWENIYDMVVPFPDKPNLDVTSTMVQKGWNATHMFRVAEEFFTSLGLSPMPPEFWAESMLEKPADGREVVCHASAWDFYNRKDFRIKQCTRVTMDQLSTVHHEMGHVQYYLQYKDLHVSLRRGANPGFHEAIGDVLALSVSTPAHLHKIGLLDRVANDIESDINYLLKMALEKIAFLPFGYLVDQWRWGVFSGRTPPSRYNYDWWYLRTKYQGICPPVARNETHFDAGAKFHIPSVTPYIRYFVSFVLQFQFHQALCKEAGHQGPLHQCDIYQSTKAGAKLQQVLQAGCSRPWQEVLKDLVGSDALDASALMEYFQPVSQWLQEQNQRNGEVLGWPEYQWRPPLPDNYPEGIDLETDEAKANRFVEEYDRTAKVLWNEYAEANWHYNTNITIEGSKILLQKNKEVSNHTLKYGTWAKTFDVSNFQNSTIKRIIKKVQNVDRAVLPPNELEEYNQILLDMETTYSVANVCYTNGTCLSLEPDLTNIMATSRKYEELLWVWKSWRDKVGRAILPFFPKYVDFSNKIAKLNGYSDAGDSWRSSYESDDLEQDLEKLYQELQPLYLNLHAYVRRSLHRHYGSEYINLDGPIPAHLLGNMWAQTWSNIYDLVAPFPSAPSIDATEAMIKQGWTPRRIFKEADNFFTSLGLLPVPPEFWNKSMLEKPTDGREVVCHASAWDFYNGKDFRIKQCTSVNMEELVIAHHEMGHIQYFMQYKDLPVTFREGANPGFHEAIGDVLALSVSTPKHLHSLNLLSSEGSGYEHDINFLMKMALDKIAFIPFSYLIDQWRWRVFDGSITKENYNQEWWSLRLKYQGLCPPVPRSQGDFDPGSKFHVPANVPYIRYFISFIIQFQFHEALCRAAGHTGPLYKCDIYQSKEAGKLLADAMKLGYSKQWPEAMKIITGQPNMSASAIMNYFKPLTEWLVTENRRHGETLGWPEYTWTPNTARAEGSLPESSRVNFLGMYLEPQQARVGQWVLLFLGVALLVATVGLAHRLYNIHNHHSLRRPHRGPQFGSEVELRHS
From the text: 1. In vitro test for inhibition of angiotensin converting enzyme

[2] = molecular target: T2, angiotensin converting enzyme (Rattus norvegicus, UniProt P47820); assay: In vivo test for inhibition of angiotensin converting enzyme: pressor responses to angiotensin I and II in anaesthetised rats
T2 construct: were each tested in anaesthetised rats; from tissue; host or cells: whole animal (anaesthetised rat)
T2 sequence (P47820 36-1313): T1 sequence (P47820 36-1313)
Description: 2. In vivo test for inhibition of angiotensin converting enzyme.
The compounds of examples 1,2,4 & 5 were each tested in anaesthetised rats for their ability to reduce the pressor responses to angiotensin I, but not those to angiotensin II. The dose of angiotensin I was 300 n.g/kg (i.v) and the dose of angiotensin II was 100 ng/kg (i.v).
The results given are the mean of those obtained from the given number of rats.
'I' is the increase in diastolic blood pressure (mm Hg) to angiotensin I (control reponse).
'%R' is the percentage reduction in control angiotensin I response after the intervals (min) from dosage.

[3] = test system: Spontaneously hypertensive rats; assay: Antihypertensive activity in spontaneously hypertensive rats (tail cuff method); assay type: in vivo
Description: 3. Antihypertensive Activity
Each determination of blood pressure was the mean of at least 6 readings. Spontaneously hypertensive rats (ages 12-18 weeks) with systolic blood pressures 170 mmH:g were considered hypertensive.
The initial blood pressure and heart rats were determined and recorded together with the % changes occuring at intervals thereafter: […]

[4] = 0.03 mg/kg i.v, 5 min from dosage
[5] = 0.03 mg/kg i.v, 10 min from dosage
[6] = 0.03 mg/kg i.v, 15 min from dosage
[7] = 0.10 mg/kg i.v, 5 min from dosage
[8] = 0.10 mg/kg i.v, 10 min from dosage
[9] = 0.10 mg/kg i.v, 15 min from dosage
[10] = 0.10 mg/kg i.v, 25 min from dosage
[11] = 0.10 mg/kg i.v, 30 min from dosage
[12] = 0.10 mg/kg i.v, 40 min from dosage
[13] = 0.10 mg/kg i.v, 45 min from dosage
[14] = 0.10 mg/kg i.v, 50 min from dosage
[15] = 0.30 mg/kg i.v, 5 min from dosage
[16] = 0.30 mg/kg i.v, 10 min from dosage
[17] = 0.30 mg/kg i.v, 15 min from dosage
[18] = 0.30 mg/kg i.v, 25 min from dosage
[19] = 0.30 mg/kg i.v, 30 min from dosage
[20] = 0.30 mg/kg i.v, 40 min from dosage
[21] = 0.30 mg/kg i.v, 45 min from dosage
[22] = 0.30 mg/kg i.v, 50 min from dosage
[23] = 10 mg/kg p.o., 1 hour post dose
[24] = 10 mg/kg p.o., 4 hours post dose
[25] = 10 mg/kg p.o., 6 hours post dose
[26] = 10 mg/kg p.o., 24 hours post dose
[27] = 30 mg/kg p.o., 1 hour post dose
[28] = 30 mg/kg p.o., 2 hours post dose
[29] = 30 mg/kg p.o., 4 hours post dose
[30] = 30 mg/kg p.o., 6 hours post dose
[31] = 30 mg/kg p.o., 24 hours post dose

Row | Substance | %R percentage reduction in control angiotensin I response [2, 4] | %R percentage reduction in control angiotensin I response [2, 5] | %R percentage reduction in control angiotensin I response [2, 6] | %R percentage reduction in control angiotensin I response [2, 7] | %R percentage reduction in control angiotensin I response [2, 8] | %R percentage reduction in control angiotensin I response [2, 9] | %R percentage reduction in control angiotensin I response [2, 10] | %R percentage reduction in control angiotensin I response [2, 11] | %R percentage reduction in control angiotensin I response [2, 12] | %R percentage reduction in control angiotensin I response [2, 13] | %R percentage reduction in control angiotensin I response [2, 14] | %R percentage reduction in control angiotensin I response [2, 15] | %R percentage reduction in control angiotensin I response [2, 16] | %R percentage reduction in control angiotensin I response [2, 17] | %R percentage reduction in control angiotensin I response [2, 18] | %R percentage reduction in control angiotensin I response [2, 19] | %R percentage reduction in control angiotensin I response [2, 20] | %R percentage reduction in control angiotensin I response [2, 21] | %R percentage reduction in control angiotensin I response [2, 22] | other results
1 | N-(1-Carboxypropyl)-(S)-alanyl-4α-benzyloxy-(S)-proline [Example 1] | 39% | 29% | 6% | 60% | 64% | 57% | 41% | 38% | 36% | 32% | 24% | 86% | 80% | 77% | 76% | 77% | 73% | 72% | 74% | IC50 [1]: 3.3 nM
2 | N-(1-carbethoxy-3-phenylpropyl)-(S)-alanyl-4α-benzyloxy-(S)-proline [Example 2] | 23% | 25% | 19% | 67% | 66% | 61% | 53% | 42% | 47% | 39% | 29% | 82% | 81% | 80% | 69% | 67% | 69% | 65% | 60% | % change in heart rate [3, 23]: -7 ± 3%; % change in systolic blood pressure [3, 23]: -5± 3%; % change in systolic blood pressure ([3]; 10 mg/kg p.o., 2 hours post dose): -10± 3%; % change in heart rate [3, 24]: -5 ± 4%; % change in systolic blood pressure [3, 24]: -22± 3%; % change in heart rate [3, 25]: 1 ± 4%; % change in systolic blood pressure [3, 25]: -22± 4%; % change in heart rate [3, 26]: -4 ± 3%; % change in systolic blood pressure [3, 26]: -7± 4%; %R percentage reduction in control angiotensin I response ([2]; 0.03 mg/kg i.v, 25 min from dosage): 12%
3 | N-[2-(2,3-dihydro-2-benzofuranyl)-l-(ethoxycarbonyl) -ethyl)-(S)-alanyl -4α-benzyloxy-(S)-nroline [Example 4] |  |  |  | 34% | 29% | 25% | 15% | 14% | 16% | 14% |  |  |  |  |  |  |  |  |  | 
4 | N-[4-(2,3-dihydro-2-benzofuranyl)-l-(ethoxycar-α bonyl)-butyl]-(S)-alanyl-4αbenzyloxy-(S)-proline [Example 5] |  |  |  | 61% | 58% | 52% | 47% | 44% | 39% |  | 18% |  |  |  |  |  |  |  |  | % change in heart rate [3, 27]: -2 ± 2%; % change in systolic blood pressure [3, 27]: -10± 3%; % change in heart rate [3, 28]: 0 ± 4%; % change in systolic blood pressure [3, 28]: -7± 2%; % change in heart rate [3, 29]: +5 ± 3%; % change in systolic blood pressure [3, 29]: -23± 1%; % change in heart rate [3, 30]: 0 ± 3%; % change in systolic blood pressure [3, 30]: -17± 1%; % change in heart rate [3, 31]: +9 ± 5%; % change in systolic blood pressure [3, 31]: +1± 3%
